# What was measured:
# Format in all cases: cell-based
# β3 integrin = test: Cell surface β3 integrin expression by flow cytometry after overnight drug incubation; conditions: 5 μM
# Description: (§1) FIGS. 13A-13P illustrate B-raf^V600E inhibits FAK to promote integrin surface expression. FIG. 13A: shRNAs 841, 102 and NC were induced in WM858 cells by IPTG for 5 days (n=4) followed by RNA quantitation. Genes regulated at 0 vs. 0.05 mM IPTG in 841 and 102 but not NC cells are shown. These were: ITGB3 (orange), FAK (blue). Light orange, light blue: up- or down-regulation, respectively, by either 841 or 102 shRNA. FIG. 13B: WM858 cells were transfected with FAK or EGFP cDNA. Regulated genes, FAK over EGFP cells, are shown in orange (up) or blue (down) (n=4). FIG. 13C: Flow cytometry of NC, 841 and 102 cells (un-induced vs. 0.05 mM IPTG for 5 days). FIG. 13D: Integrin cell surface mean intensities; mean.+−.s.d.; n=3; *, p<0.05; p values, Student's t-test; ns, not significant. FIG. 13E: Visualization of focal adhesions by paxillin staining on micropatterned fibronectin disks. FIGS. 13F and 13G: Proliferation speed in the absence (FIG. 13F) or presence (FIG. 13G) of FAK shRNAs; mean.+−.s.d.; n=8; *, p<0.05; p values, Student's t-test; ns, not significant. FIGS. 13H and 13I: Scratch wound healing in IPTG-induced cells; representative experiment (n=3). FIGS. 13J and 13K: Effect of IPTG-induced FAK knock-down on total (t) and phospho (p)-ERK; mean.+−.s.d.; n=4; *, p<0.05; p values, Student's t-test. FIG. 13L: Cell surface β1 and β3 integrin expression (flow cytometry) in B-raf^V600E and wild-type cells after overnight drug incubation; % expression relative to DMSO is shown. FIGS. 13M-13O: FAK/ERK levels in NHM and WM858 after overnight drug incubation (FIG. 13M); quantification of FAK (FIG. 13N) and ERK phosphorylation (FIG. 13O); mean.+−.s.d.; n=4; *, p<0.05; p values, Student's t-test. FIG. 13P: ERK activity in NC, 841 and 102 cells (0.05 mM IPTG for 5 days) after overnight drug incubation.
# Isopropyl β-D-1-thiogalactopyranoside (IPTG), 4′,6-Diamidino-2-phenylindole dihydrochloridemitomycin (DAPI), blebbistatin and PF-573228 were purchased from Sigma-Aldrich. Dabrafenib (GSK2118436) was purchased from Selleckchem. FAK antibody (06-543) was from EMD MILLIPORE®. FAK pY397 (44624G) antibody was from Life Technologies. Total ERK (9102) and phospho-ERK (4370) antibodies were from Cell Signaling. Paxillin (610051), ITGB3 (555754), ITGB1 (555443) and mouse IgG1 kappa (555749) antibodies were from BD Transduction Labs. Drugs were used at 5 μM final concentration. EGFP control cDNA was from (Lonza). […]
# (§2) PYK2, a FAK-like tyrosine kinase, could not be detected in WM858 cells, irrespective of endogenous FAK levels. WM858 cells carrying control (NC) or FAK-specific shRNAs (841 and 102) were then exposed to IPTG for 5 days, and changes in adhesion gene expression were subsequently quantified by PCR. […]
# β1 integrin = test: Cell surface β1 integrin expression by flow cytometry after overnight drug incubation; conditions: 5 μM
# Description: as §1
# Isopropyl β-D-1-thiogalactopyranoside (IPTG), 4′,6-Diamidino-2-phenylindole dihydrochloridemitomycin (DAPI), blebbistatin and PF-573228 were purchased from Sigma-Aldrich. Dabrafenib (GSK2118436) was purchased from Selleckchem. FAK antibody (06-543) was from EMD MILLIPORE®. FAK pY397 (44624G) antibody was from Life Technologies. Total ERK (9102) and phospho-ERK (4370) antibodies were from Cell Signaling. Paxillin (610051), ITGB3 (555754), ITGB1 (555443) and mouse IgG1 kappa (555749) antibodies were from BD Transduction Labs. Drugs were used at 5 μM final concentration. EGFP control cDNA was from (Lonza). FAK cDNA was obtained from A. Huttenlocher, Addgene plasmid number 35039 (Chan et al., J. Biol. Chem., 285:11418-26 (2010)).
# PYK2, a FAK-like tyrosine kinase, could not be detected in WM858 cells, irrespective of endogenous FAK levels. WM858 cells carrying control (NC) or FAK-specific shRNAs (841 and 102) were then exposed to IPTG for 5 days, and changes in adhesion gene expression were subsequently quantified by PCR. […] Moreover, Dabrafenib-induced blockage of ERK activity could be partially reversed by a complete FAK knock-down in 102 cells (FIG. 13P).
# FAK = target: T1, FAK (Homo sapiens, UniProt Q05397); test: FAK Y397 auto-phosphorylation by Western blotting after overnight drug incubation; conditions: melanoma cells, 5 μM
# T1 construct: FAK/ERK levels in NHM and WM858 after overnight drug incubation; endogenous in cells; host or cells: WM858 melanoma cells and NHM
# T1 sequence (Q05397 whole entry): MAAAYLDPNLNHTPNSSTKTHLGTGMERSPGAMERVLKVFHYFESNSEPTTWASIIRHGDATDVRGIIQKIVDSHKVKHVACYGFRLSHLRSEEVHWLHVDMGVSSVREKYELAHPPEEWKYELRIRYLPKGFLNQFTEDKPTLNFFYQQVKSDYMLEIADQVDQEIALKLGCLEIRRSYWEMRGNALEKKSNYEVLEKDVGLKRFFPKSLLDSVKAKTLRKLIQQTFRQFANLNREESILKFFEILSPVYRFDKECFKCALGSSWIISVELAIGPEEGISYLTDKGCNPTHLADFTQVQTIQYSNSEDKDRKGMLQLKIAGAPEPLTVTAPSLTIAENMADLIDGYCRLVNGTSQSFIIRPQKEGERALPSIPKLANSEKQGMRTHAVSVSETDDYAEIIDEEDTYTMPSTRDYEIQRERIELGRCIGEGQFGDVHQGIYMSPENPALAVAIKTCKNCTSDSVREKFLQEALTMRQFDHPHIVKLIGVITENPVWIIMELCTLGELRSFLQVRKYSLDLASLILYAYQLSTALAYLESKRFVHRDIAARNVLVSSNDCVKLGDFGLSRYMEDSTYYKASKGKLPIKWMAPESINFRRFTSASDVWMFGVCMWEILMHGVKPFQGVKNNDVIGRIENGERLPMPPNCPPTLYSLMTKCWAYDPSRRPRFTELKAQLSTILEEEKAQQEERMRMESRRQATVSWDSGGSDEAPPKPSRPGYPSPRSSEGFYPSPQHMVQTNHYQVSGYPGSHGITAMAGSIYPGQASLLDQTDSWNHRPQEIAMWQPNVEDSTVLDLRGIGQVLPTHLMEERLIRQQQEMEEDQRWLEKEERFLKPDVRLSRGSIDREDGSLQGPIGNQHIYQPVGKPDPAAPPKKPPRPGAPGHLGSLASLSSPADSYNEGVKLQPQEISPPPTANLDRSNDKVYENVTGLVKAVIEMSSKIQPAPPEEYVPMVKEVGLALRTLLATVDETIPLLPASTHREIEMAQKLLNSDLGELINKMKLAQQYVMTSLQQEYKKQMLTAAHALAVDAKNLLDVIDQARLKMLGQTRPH
# Description: (§3) FIGS. 13A-13P illustrate B-raf^V600E inhibits FAK to promote integrin surface expression. FIG. 13A: shRNAs 841, 102 and NC were induced in WM858 cells by IPTG for 5 days (n=4) followed by RNA quantitation. Genes regulated at 0 vs. 0.05 mM IPTG in 841 and 102 but not NC cells are shown. These were: ITGB3 (orange), FAK (blue). Light orange, light blue: up- or down-regulation, respectively, by either 841 or 102 shRNA. FIG. 13B: WM858 cells were transfected with FAK or EGFP cDNA. Regulated genes, FAK over EGFP cells, are shown in orange (up) or blue (down) (n=4). FIG. 13C: Flow cytometry of NC, 841 and 102 cells (un-induced vs. 0.05 mM IPTG for 5 days). FIG. 13D: Integrin cell surface mean intensities; mean.+−.s.d.; n=3; *, p<0.05; p values, Student's t-test; ns, not significant. FIG. 13E: Visualization of focal adhesions by paxillin staining on micropatterned fibronectin disks. […] FIGS. 13M-13O: FAK/ERK levels in NHM and WM858 after overnight drug incubation (FIG. 13M); quantification of FAK (FIG. 13N) and ERK phosphorylation (FIG. 13O); mean.+−.s.d.; n=4; *, p<0.05; p values, Student's t-test. […]
# as §2
# ERK = ERK activity (phospho-ERK) by Western blotting after overnight drug incubation; conditions: WM858 melanoma cells, 5 μM
# Description: as §3, §2
Compound,β3 integrin surface levels (β3 integrin; B-rafV600E melanoma cells),β1 integrin surface levels (β1 integrin; B-raf wild-type melanoma cells),β1 integrin surface levels (β1 integrin; B-rafV600E melanoma cells),integrin levels (cell surface β3) (β3 integrin; NHM),integrin levels (cell surface β3) (β3 integrin; most melanoma cells),integrin levels (cell surface β1) (β1 integrin; NHM),integrin levels (cell surface β1) (β1 integrin; most melanoma cells),FAK tyrosine (Y) 397 auto-phosphorylation (FAK),ERK activity (ERK)
Cc1ccc2c(c1)C(=O)C1(O)CCN(c3ccccc3)C1=N2 (stereo not drawn) [blebbistatin],induced,not,induced,,,,,,
CC(C)(C)c1nc(-c2cccc(NS(=O)(=O)c3c(F)cccc3F)c2F)c(-c2ccnc(N)n2)s1 [Dabrafenib],,,,not,reduced,not,reduced,increased,blockage
